Reference: article PMC6920962, “Unravelling the Skin Secretion Peptides of the Gliding Leaf Frog, Agalychnis spurrelli (Hylidae)” (Biomolecules, 2019)
Converted amounts (≈) assume the structure as drawn. “And” between values parts separate entries of the source, which are not always exact repeats. Equal values may be shown once. Read-outs that look alike come from different tables or passages of the source. Marks after values point to notes of the source that are not given here. Ends that are not written are not given here.

Legend:
[1] = test system: Escherichia coli ATCC 25922; set-up: method as in 6 sources, ref Cuesta et al., 2019 (41) ||| ref Charpantier, et al., 1998 (39) ||| ref Raja et al., 2013 (40) ||| ref Reimer et al., 1981 (42) ||| ref 20, 22 = [20]; PMID 17561225; doi:10.1016/j.toxicon.2007.04.017; 20. Conlon J.M. Woodhams D.C. Raza H. Coquet L. Leprince J. Jouenne T. Vaudry H. Rollins-Smith L.A. Peptides with Differential Cytolytic Activity from Skin Secretions of the Lemur Leaf Frog Hylomantis || [22]; PMID 23415652; doi:10.1016/j.biochi.2013.02.005; 22. Xi X. Li R. Jiang Y. Lin Y. Wu Y. Zhou M. Xu J. Wang L. Chen T. Shaw C. Medusins: A New Class of Antimicrobial Peptides from the Skin Secretions of Phyllomedusine Frogs Biochimie 2013 95 1288 1296 ||| ...; details: cited from earlier work
Candida albicans [2] = test system: Candida albicans; set-up: method as in Cuesta et al., 2019 (41); details: broth microdilution; ref Cuesta et al., 2019 (41); cited from earlier work
Experimental: In this work, skin secretion from this amphibian was analysed by molecular cloning and tandem mass spectrometry.

[3] = test system: Staphylococcus aureus ATCC 25923; set-up: method as in 4 sources, ref Cuesta et al., 2019 (41) ||| ref Charpantier, et al., 1998 (39) ||| ref Raja et al., 2013 (40) ||| ref Reimer et al., 1981 (42); details: cited from earlier work
[4] = test system: S. aureus Oxacillin Resistant (ORSA Strain 20)
Experimental: (§1) For the in vitro evaluation of antimicrobial potentials of new biochemical structures identified herein, five synthetic peptides were purchased from a commercial supplier (Biomatik). Approximately 100 mg of each peptide was synthetized by Fmoc technology. […] The lyophilized peptides were kept at −20 °C and diluted in dimethyl sulfoxide (DMSO) before the antimicrobial assays, which were performed according to broth microdilution methodology detailed by Proaño et al.. Minimal inhibitory concentration of the synthetic peptides was determined against the following Gram-positive bacteria: Staphylococcus aureus ATCC 25923 and S. aureus oxacillin resistant strain; Gram-negative bacteria: Escherichia coli ATCC 25922 and Klebsiella pneumonia clinical isolate; and the opportunistic pathogenic yeast Candida albicans. Briefly, peptides were dissolved in DMSO at the following concentrations: 512, 256, 128, 64, 32, 16, 8, 4, 2, 1 […] mg/L. Each bacteria/yeast was cultured until reach log phase and then it was diluted to obtain 1 × 10^6 CFU/mL for bacteria and 1 × 10^5 CFU/mL for the yeast. Assays were prepared in 96 well sterile plates where 198 µL of each microorganism was challenged with 2 μL of the diluted peptides at the serial dilutions mentioned above. […] Another control included 200 μL of Muller Hinton broth without microorganisms to be used as blank with no growth. Seven replicates per peptide concentration was employed and experiments were performed in triplicates. […] MIC was determined as the minimal concentration of peptide required to inhibit the growth of >95% of microbial growth.

[5] = test system: Klebsiella pneumonia clinical isolate
Experimental: as §1

P. aeruginosa = details: cited from earlier work
[6] = cited from earlier work
red blood cells = assay type: cell-based
Experimental: Aiming to determine the toxicity of frog peptides to red blood cells, in vitro assays were performed with different concentrations of each peptide. The diluted peptides (employing the same concentrations than for the antimicrobial assay described above) were incubated with a suspension of red blood cells (2%) (7.7 × 10^6 ± 0.3 × 10^6 cells/mL) at a ratio of 1:1 (v/v), in a total volume of 400 µL for 2 h at 37 °C. After the incubation period, the cells were centrifuged at 3000 rpm for 5 min and transferred to a 96 well plates. The haemolytic activity was monitored at 550 nm and was performed in triplicate. PBS and 2% (v/v) Triton X-100 were used as negative and positive controls, respectively.

Candida albicans [7] = details: 18 h
Experimental: as §1

[8] = test system: Escherichia coli ATCC 25922; details: ATCC 25922, 18 h
Experimental: as §1

[9] = test system: Staphylococcus aureus ATCC 25923; details: ATCC 25923, 18 h
Experimental: as §1

[10] = broth microdilution, ref Cuesta et al., 2019 (41)
[11] = broth microdilution, ref Cuesta et al., 2019 (41), listed as dermaseptin-2
[12] = broth microdilution, 1 × 10^6 CFU/mL, 37 °C 18 h, OD 600 nm, MIC = >95% growth inhibition, seven replicates, triplicate experiments
[13] = ref Charpantier, et al., 1998 (39)
[14] = ref Reimer et al., 1981 (42), listed as ampicillin

ASWKVFLKNIGKAAGKAVLNSVTDMVNQ-NH2 [Dermaseptin-SP2]
MIC E. coli ATCC 25922 [1, 10]: 2.68 µM | MIC E. coli ATCC 25922 [1, 11]: 2.68 µM | MIC C. albicans (Candida albicans [2]): 10.71 µM | MIC S. aureus ATCC 25923 [3, 10]: 2.68 µM | MIC S. aureus ATCC 25923 [3, 11]: 2.68 µM | MIC S. aureus Oxacillin Resistant (ORSA Strain 20) ([4]; Oxacillin Resistant (ORSA Strain 20, 18 h)): 2.68 µM | MIC S. aureus Oxacillin Resistant (ORSA Strain 20) [4, 12]: 8 µg/mL | MIC S. aureus Oxacillin Resistant (ORSA Strain 20) ([4]; broth microdilution, 1 × 10^6 CFU/mL, 37 °C 18 h, OD 600 nm, MIC = >95% growth inhibition, seven replicates, triplicate experiments, listed as dermaseptin-2): 2.68 µM | MIC K. pneumoniae Clinical Isolate ([5]; 18 h): 10.71 µM | MIC K. pneumoniae Clinical Isolate [5, 12]: 32 µg/mL

ALWKDILKNVGKAAGKAVLNTVTDMVNQ-NH2 [Dermaseptin-B4, dermaseptin of P. bicolor]
MIC E. coli ATCC 25922 [1, 13]: 5.00 ** μM | MIC P. aeruginosa (P. aeruginosa): 4.6 to 11.6 µM | Concentration at which cytotoxicity was exhibited [6]: 12 µM | MIC S. aureus ATCC 25923 [3, 13]: 3.00 ** μM | MIC S. aureus ATCC 25923 ([3]; ref Charpantier, et al., 1998 (39), listed as DRS-B4): 3 µM

ALWKTMLKKLGTMALHAGKAALGAAADTISQGTQ [Dermaseptin-S1, dermaseptin of Phyllomedusa sauvagii]
MIC E. coli ATCC 25922 [1, 13]: 46 μM and 46.00 ** μM | MIC S. aureus ATCC 25923 [3, 13]: 60.00 ** μM

SLWSSIKDMAAAAGRAALNAVNGILNP-NH2 [Dermaseptin-SP4]
MIC K. pneumoniae Clinical Isolate ([5]; 18 h): 189.00 µM

SLWSSIKDMAAAAGRAALNAVNGIVNP-NH2 [Dermaseptin-SP3]
MIC K. pneumoniae Clinical Isolate ([5]; 18 h): > 189.98 µM

FLSLIPHVISAIPHVVNALSNL-NH2 [Phylloseptin-SP1]
Toxicity to red blood cells compared with the dermaseptins (red blood cells): greater toxicity to red blood cells than did the dermaseptins | MIC C. albicans (Candida albicans [7]): > 217.69 µM | MIC K. pneumoniae Clinical Isolate ([5]; 18 h): > 189.00 µM | MIC E. coli ATCC 25922 [8]: > 217.69 µM | MIC S. aureus ATCC 25923 [9]: > 217.69 µM

SLRSSIKDMAAAAGRAALNAVNGIVNP-NH2 [Dermaseptin-SP5, novel dermaseptin of A. spurrelli, synthetic amidated peptide]
MIC E. coli ATCC 25922 [1, 10]: 96.06 μM and 256 mg/L | MIC C. albicans (Candida albicans [2]): 384.24 μM and 1024 mg/L | MIC S. aureus ATCC 25923 [3, 10]: > 192.12 μM and > 512 mg/L

CC1(C)S[C@@H]2[C@H](NC(=O)[C@H](N)c3ccccc3)C(=O)N2[C@H]1C(=O)O [Ampicillin]
MIC E. coli ATCC 25922 ([1]; ref Reimer et al., 1981 (42)): 6.0 **** μM | MIC E. coli ATCC 25922 [1, 14]: 6 µM (≈ 2.1 µg/mL) | MIC S. aureus ATCC 25923 ([3]; ref Reimer et al., 1981 (42)): 0.1 **** μM | MIC S. aureus ATCC 25923 [3, 14]: 0.1 µM (≈ 0.0349 µg/mL)

FLSLIPHIVSGVASIAKHFG [Phyloseptin-S1, phylloseptin of P. sauvagii]
MIC E. coli ATCC 25922 ([1]; ref Raja et al., 2013 (40)): 70.00 *** μM | MIC S. aureus ATCC 25923 ([3]; ref Raja et al., 2013 (40)): 6.25 *** μM
